Assay [1] has as its target Glucocorticoid Receptor (GR) (Homo sapiens (Human), UniProt P04150). Description: LanthaScreen TR-FRET GR Competitive Binding Assay (cell free).
For assay [2], the system named is GR activation in 293/PRLR/GRE-Luc cells (HEK293/9xUAS-Luc2P/pBind-GR/PRLR-HA high cells). Description: GR co-activator luciferase reporter cell based assay in 293/PRLR/GRE-Luc cells. Further details: species or system human. The settings on record: for HEK293/9xUAS-Luc2P/pBind-GR/PRLR-HA high cells activation relative to Budesonide: fold activation vs Budesonide; for Emax: HEK293, read-out: Activation (fold activation relative to Budesonide) in HEK293/9xUAS-Luc2P/pBind-GR/PRLR-HA high cells.
Source text: Bioassays described herein were used to assess the efficacy of free steroids and anti-PRLR-ncADCs. In one example, the bioassay assessed the activity of steroids, after internalization of a site-specific anti-PRLR-GC steroid ADC into cells, to bind to pBIND-GR and subsequent luciferase reporter activation. […] Then such stable cell line was further transfected with a chimeric receptor consisting of a GR ligand binding domain fused to the yeast Gal4 DNA binding domain (pBind-GR, Promega Cat #E1581), and a Gal4 upstream activator sequence (9×Gal4UAS-Luc2P) that drives luciferase gene expression.
(§1) For this assay, 20,000 cells were seeded in 96-well plates in media containing DMEM supplemented with 10% FBS and pencillin/streptomycin (complete media) and grown overnight at 37° C. in 5% CO2. […] Luciferase activity was determined by addition of OneGlo™ reagent (Promega, Cat #E6130) and relative light units (RLUs) were measured on a Victor luminometer (Perkin Elmer). The EC50 values were determined from a four-parameter logistic equation over a 10 point response curve using GraphPad Prism.
as §1, with “One-Glo™” for “OneGlo™”, “10-point” for “10 point”, “Prism. […] Minimal activation in this assay is defined as less than 10% of the maximal activation measured with the free payload.” for “Prism.”

Setting [3] is: Homo sapiens, HEK293, read-out: HEK293/9xUAS-Luc2P/pBind-GR/PRLR-HA high cells EC50.
Where [4] appears, read: Homo sapiens, 72 hours of incubation.
[5] abbreviates: Homo sapiens, HEK293, 72 hours of incubation, read-out: HEK293/9xUAS-Luc2P/pBind-GR/PRLR-HA high cells EC50.

Counter-ions that a name gives are not always drawn. Like-named read-outs stand apart in the source and are kept apart here.

Chain of Glucocorticoid Receptor (GR) (P04150 524-758): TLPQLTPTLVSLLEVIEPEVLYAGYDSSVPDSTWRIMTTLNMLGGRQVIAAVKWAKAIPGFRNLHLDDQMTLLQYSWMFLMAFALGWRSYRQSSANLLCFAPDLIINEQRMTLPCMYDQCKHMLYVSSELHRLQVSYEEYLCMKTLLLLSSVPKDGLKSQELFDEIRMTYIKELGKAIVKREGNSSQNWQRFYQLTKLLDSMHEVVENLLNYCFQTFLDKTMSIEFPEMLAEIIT

In turn, `CCCC1O[C@@H]2C[C@H]3[C@@H]4C[C@H](F)C5=CC(=O)C=C[C@]5(C)[C@@]4(F)[C@@H](O)C[C@]3(C)[C@]2(C(=O)COc2ccc(N)c(OC)c2)O1` (stereo partly drawn) [Compound 6-II, (1S,2S,4R,8S,9S,11S,12R,13S,19S)-8-[2-(4-Amino-3-methoxyphenoxy)acetyl]-12,19-difluoro-11-hydroxy-9,13-dimethyl-6-propyl-5,7-dioxapentacyclo[10.8.0.0^2,90.0^4,80.0^13,18]icosa-14,17-dien-16-one trifluoroacetate] yielded an IC50 in assay [1] of less than 10 nM. In addition, the EC50 in assay [2] (setting [3]) was less than 10 nM. The “HEK293/9xUAS-Luc2P/pBind-GR/PRLR-HA high cells activation relative to Budesonide” value in assay [2] is given as “Full”.

Molecule `CCCC1O[C@@H]2C[C@H]3[C@@H]4CCC5=CC(=O)C=C[C@]5(C)[C@@]4(F)[C@@H](O)C[C@]3(C)[C@]2(C(=O)CN)O1` (stereo partly drawn) [Compound 4h, (1S,2S,4R,8S,9S,11S,12R,13S)-8-(2-Aminoacetyl)-12-fluoro-11-hydroxy-9,13-dimethyl-6-propyl-5,7-dioxapentacyclo[10.8.0.0^2,9.0^4,8.0^13,18]icosa-14,17-dien-16-one] showed an IC50 in assay [1] of 10 to 50 nM. Further, the EC50 in assay [2] (setting [3]) was less than 10 nM. Moreover, the “HEK293/9xUAS-Luc2P/pBind-GR/PRLR-HA high cells activation relative to Budesonide” value in assay [2] is “Full”.

As to `C[C@@H]1C[C@H]2[C@@H]3C[C@H](F)C4=CC(=O)C=C[C@]4(C)[C@@]3(F)[C@@H](O)C[C@]2(C)[C@@]1(O)C(=O)COc1ccc(N)cc1` [Compound 15-5, (1R,2S,8S,10S,11S,13R,14R,155,17S)-14-[2-(4-Aminophenoxy)acetyl]-1,8-difluoro-14,17-dihydroxy-2,13,15-trimethyltetracyclo[8.7.0.0^2,70.0^11,15]heptadeca-3,6-dien-5 one], in assay [1], the IC50 fell in the range of 10 to 100 nM. Besides, in assay [2] (72 hours of incubation), the “Activation (fold activation relative to Budesonide) in HEK293/9xUAS-Luc2P/pBind-GR/PRLR-HA high cells” value is given as “Full activation (Full activation: >75% of fold activation induced by Budesonide)”. Also, in assay [2] (72 hours of incubation, read-out: HEK293/9xUAS-Luc2P/pBind-GR/PRLR-HA high cells EC50), the EC50 lay within 10 to 100 nM.

Take `C[C@]12C=CC(=O)C=C1CC[C@@H]1[C@@H]2[C@@H](O)C[C@@]2(C)[C@H]1C[C@H]1O[C@@H](c3ccc(N)cc3)O[C@]12C(=O)CO` [7-1 R, (1S,2S,4R,6R,8S,9S,11S,12S,13R)-6-(4-Aminophenyl)-11-hydroxy-8-(2-hydroxyacetyl)-9,13-dimethyl-5,7-dioxapentacyclo[10.8.0.0^2,90.0^4,80.0^13,18]icosa-14,17-dien-16-one]: the IC50 in assay [1] is 10 to 100 nM. In addition, in assay [2] (setting [4]), the Emax is greater than 75%. The EC50 in assay [2] (setting [5]) was less than 10 nM.

In turn, `CCC[C@@H]1O[C@@H]2C[C@H]3[C@@H]4CCC5=CC(=O)C=C[C@]5(C)[C@H]4[C@@H](O)C[C@]3(C)[C@]2(C(=O)COc2ccc(N)cc2F)O1` [11-7 R, (1S,2S,4R,8S,9S,11S,12S,13R)-8-[2-(4-Amino-3-fluorophenoxy)acetyl]-11-hydroxyl-9,13-dimethyl-6-propyl-5,7-dioxapentacyclo[10.8.0.0^2,90.0^4,80.0^13,18]icosa-14,17-dien-16-one] yielded an IC50 in assay [1] of 10 to 100 nM. Further, the Emax in assay [2] (setting [4]) was greater than 75%. The EC50 in assay [2] (setting [5]) was 10 to 100 nM.

Consider `CCC[C@H]1O[C@@H]2C[C@H]3[C@@H]4CCC5=CC(=O)C=C[C@]5(C)[C@H]4[C@@H](O)C[C@]3(C)[C@]2(C(=O)COc2ccc(N)c(F)c2)O1` [11-6 S, (1S,2S,4R,6S,8S,9S,11S,12S,13R)-8-[2-(4-Amino-3-fluorophenoxy)acetyl]-11-hydroxyl-9,13-dimethyl-6-propyl-5,7-dioxapentacyclo[10.8.0.0^2,90.0^4,80.0^13,18]icosa-14,17-dien-16-one], for which the IC50 in assay [1] was 10 to 100 nM. Further, in assay [2] (setting [4]), the Emax is greater than 75%. Also, the EC50 in assay [2] (setting [5]) was less than 10 nM.

In turn, `CC(C)C(=O)OCC(=O)[C@@]12OC(CCN)O[C@@H]1C[C@H]1[C@@H]3CCC4=CC(=O)C=C[C@]4(C)[C@H]3[C@@H](O)C[C@@]12C` (stereo partly drawn) [8-3 R/S, 2[(1S,2S,4R,8S,9S,11S,12S,13R)-6-(2-Aminoethyl)-11-hydroxy-9,13-dimethyl-16-oxo-5,7-dioxapentacyclo[10.8.0.0^2,90.0^4,8. 0^13,18]icosa-14,17-dien-8-yl]-2-oxoethyl 2-methylpropanoate] returned an IC50 in assay [1] of less than 10 nM. In addition, the Emax in assay [2] (setting [4]) is less than 20%. Moreover, in assay [2] (setting [5]), the EC50 is greater than 100 nM.

Turning to `CCCC1O[C@@H]2C[C@H]3[C@@H]4C[C@H](F)C5=CC(=O)C=C[C@]5(C)[C@@]4(F)[C@@H](O)C[C@]3(C)[C@]2(C(=O)COc2ccc(N)c(F)c2)O1` (stereo partly drawn) [11-14 R/S, (1S,2S,4R,8S,9S,11S,12R,13S,19S)-8-[2-(4-Amino-3-fluorophenoxy)acetyl]-12,19-difluoro-11-hydroxy-9,13-dimethyl-6-propyl-5,7-dioxapentacyclo[10.8.0.0^2,9.0^4,80.0^13,18]icosa-14,17-dien-16-one], in assay [1], the IC50 is less than 10 nM. In assay [2] (setting [4]), the Emax was greater than 75%. In addition, the EC50 in assay [2] (setting [5]) was less than 10 nM.

On to `CCC[C@@H]1O[C@@H]2C[C@H]3[C@@H]4CCC5=CC(=O)C=C[C@]5(C)[C@H]4[C@@H](O)C[C@]3(C)[C@]2(C(=O)COc2ccc(NC(C)=O)cc2)O1` [11-11 R/S, N-(4-{2-[(1S,2S,4R,6R,8S,9S,11S,12S,13R)-11-Hydroxy-9,13-dimethyl-16-oxo-6-propyl-5,7-dioxapentacyclo[10.8.0.0^2,90.0^4,80.0^13,18]icosa-14,17-dien-8-yl]-2-oxoethoxy}phenyl)acetamide], for which the IC50 in assay [1] is less than 10 nM. Moreover, the Emax in assay [2] (setting [4]) was less than 20%. The EC50 in assay [2] (setting [5]) was greater than 100 nM.

`CCCC1O[C@@H]2C[C@H]3[C@@H]4CCC5=CC(=O)C=C[C@]5(C)[C@H]4[C@@H](O)C[C@]3(C)[C@]2(C(=O)CN(C)C)O1` (stereo partly drawn) [11-3 R/S, (1S,2S,4R,8S,9S,11S,12S,13R)-8-[2-(Dimethylamino)acetyl]-11-hydroxy-9,13-dimethyl-6-propyl-5,7-dioxapentacyclo[10.8.0.0^2,90.0^4,80.0^13,18]icosa-14,17-dien-16-one] came in with an IC50 in assay [1] of less than 10 nM. The Emax in assay [2] (setting [4]) was 20 to 75%. The EC50 in assay [2] (setting [5]) lay in the range of 10 to 100 nM.

In the case of `CCCC1O[C@@H]2C[C@H]3[C@@H]4CCC5=CC(=O)C=C[C@]5(C)[C@H]4[C@@H](O)C[C@]3(C)[C@]2(C(=O)CNC)O1` (stereo partly drawn) [11-2 R/S, (1S,2S,4R,8S,9S,11S,12S,13R)-11-hydroxy-9,13-dimethyl-8-[2-(methylamino)acetyl]-6-propyl-5,7-dioxapentacyclo[10.8.0.0^2,90.0^4,80.0^13,18]icosa-14,17-dien-16-one], the IC50 in assay [1] is 10 to 100 nM. In addition, the Emax in assay [2] (setting [4]) is greater than 75%. In assay [2] (setting [5]), the EC50 was greater than 100 nM.

Regarding `C[C@]12C=CC(=O)C=C1CC[C@@H]1[C@@H]2[C@@H](O)C[C@@]2(C)[C@H]1C[C@H]1OC(Cc3ccc(N)cc3)O[C@]12C(=O)CO` (stereo partly drawn) [7-2 R/S, (1S,2S,4R,8S,9S,11S,12S,13R)-6[(4-Aminophenyl)methyl]-11-hydroxy-8-(2-hydroxyacetyl)-9,13-dimethyl-5,7-dioxapentacyclo[10.8.0.0^2,90.0^4,80.0^13,18]icosa-14,17-dien-16-one], the IC50 in assay [1] is less than 10 nM. Moreover, the “Fold Activation” value in assay [2] (293/PRLR/GRE-Luc cells, 72 hours) is recorded as “Full”. The EC50 in assay [2] (Homo sapiens, HEK293, 72 h, read-out: EC50) is 10 to 100 nM; in assay [2] (setting [5]), less than 10 nM. In assay [2] (setting [4]), the Emax is less than 20%.

In turn, `CCCC1O[C@@H]2C[C@H]3[C@@H]4C[C@H](F)C5=CC(=O)C=C[C@]5(C)[C@@]4(F)[C@@H](O)C[C@]3(C)[C@]2(C(=O)CN(C)Cc2ccc(OC)cc2)O1` (stereo partly drawn) [11-20 R/S, (1S,2S,4R,8S,9S,11S,12R,13S,19S)-12,19-Difluoro-11-hydroxy-8-(2-{[(4-methoxyphenyl)methyl](methyl)amino}acetyl)-9,13-dimethyl-6-propyl-5,7-dioxapentacyclo[10.8.0.0^2,90.0^4,80.0^13,18]icosa-14,17-dien-16-one; trifluoroacetic acid] yielded an IC50 in assay [1] of less than 10 nM. For the same molecule, the “Activation (fold activation relative to Budesonide) in HEK293/9xUAS-Luc2P/pBind-GR/PRLR-HA high cells” value in assay [2] (72 hours of incubation) is “no activation”. Moreover, in assay [2] (setting [5]), the EC50 is greater than 100 nM.

Regarding `CCC[C@@H]1O[C@@H]2C[C@H]3[C@@H]4CCC5=CC(=O)C=C[C@]5(C)[C@H]4[C@@H](O)C[C@]3(C)[C@]2(C(=O)COc2ccc(F)cc2)O1` [11-10 R/S, (1S,2S,4R,6R,8S,9S,11S,12S,13R)-8-[2-(4-Fluorophenoxy)acetyl]-11-hydroxy-9,13-dimethyl-6-propyl-5,7-dioxapentacyclo[10.8.0.0^2,90.0^4,80.0^13,18]icosa-14,17-dien-16-one], the IC50 in assay [1] is less than 10 nM. Besides, in assay [2] (setting [4]), the Emax was less than 20%. Also, in assay [2] (setting [5]), the EC50 was greater than 100 nM.

The values above are taken from patent US11760775B2, “Steroids and protein-conjugates thereof” (Regeneron Pharmaceuticals, Inc., priority 2016, dated 2023).
